Measurements taken from PMC6219668 (Oncotarget, 2018).
Values joined by “and” are separate entries in the source; they are usually repeats but may differ in a detail not shown here. Equal values may be shown once. Read-outs that look alike come from different tables or passages of the source.

Tests used:
[1] = system: JeKo-1; test: cells; format: cell-based; details: Homo sapiens; JeKo-1, MCL, dominant CDK4; read-out: IC50, mean ± SD
[2] = system: MCF-7; test: cells; format: cell-based; details: Homo sapiens, MCF7; MCF-7, ER+ BC, dominant CDK4; read-out: IC50, mean ± SD
[3] = system: CDK1/cyclin B; details: cited from earlier work
[4] = system: NCI-H1975; test: cells; format: cell-based; details: Homo sapiens, NCI-H1975, read-out: Percent inhibition
[5] = system: MDA-MB-415; test: cells; format: cell-based; details: Homo sapiens, MDA-MB-415, 72 h
[6] = system: HCC-4006; test: cells; format: cell-based; details: Homo sapiens, HCC4006; HCC-4006, 72 h
[7] = system: NB1; test: cells; format: cell-based; details: Homo sapiens, NB1, 72 h
[8] = system: KELLY; test: cells; format: cell-based; details: 72 h
[9] = system: SK-N-SH; test: cells; format: cell-based; details: Homo sapiens, 72 h
[10] = system: MGH051; test: cells; format: cell-based; details: MGH051, 72 h
[11] = system: CDK9/cyclin T1; details: cited from earlier work
[12] = system: UACC-62; test: cells; format: cell-based; details: Homo sapiens, UACC-62, 72 h
[13] = system: OE33; test: cells; format: cell-based; details: Homo sapiens, OE33, 72 h
[14] = system: TE-10; test: cells; format: cell-based; details: Homo sapiens, TE-10, 72 h
[15] = Maximum tolerated dosage; format: in vivo; details: mice, once daily
[16] = system: MDA-MB-415; test: cells; format: cell-based; details: Homo sapiens, MDA-MB-415, 72 h; remark: listed apart in the source
[17] = system: TE-11; test: cells; format: cell-based; details: Homo sapiens, TE-11, 72 h
[18] = system: Hs 944.T; format: in vivo; details: Melanoma
[19] = system: KYSE450; test: cells; format: cell-based; details: Homo sapiens, KYSE-450; KYSE450, 72 h
[20] = system: HBCx-10; format: in vivo; details: HBCx-10, Breast, TNBC, Rb absent; 125 mg/kg bid × 21
[21] = system: SK-MEL-30; test: cells; format: cell-based; details: Homo sapiens, SK-MEL-30, 72 h
[22] = system: MGH049; test: cells; format: cell-based; details: MGH049, 72 h
[23] = system: HBCx-14; format: in vivo; details: HBCx-14, Breast, TNBC, Rb absent; 125 mg/kg bid × 21
[24] = system: HCC-827; test: cells; format: cell-based; details: Homo sapiens, HCC827; HCC-827, 72 h
[25] = system: NCI-H23; test: cells; format: cell-based; details: Homo sapiens, NCI-H23, 72 h
[26] = system: CHP-212; test: cells; format: cell-based; details: Homo sapiens, CHP-212, 72 h
[27] = system: HBCx-2; format: in vivo; details: HBCx-2, Breast, TNBC, Rb absent; 125 mg/kg bid × 21
[28] = system: TE-5; test: cells; format: cell-based; details: Homo sapiens, TE-5, 72 h
[29] = system: NCI-H3122; test: cells; format: cell-based; details: Homo sapiens, NCI-H3122, 72 h
[30] = system: TE-10; test: cells; format: cell-based; details: Homo sapiens, TE-10, 72 h; remark: listed apart in the source
[31] = system: NCI-H1975; test: cells; format: cell-based; details: Homo sapiens, NCI-H1975, 72 h
[32] = system: TE-8; test: cells; format: cell-based; details: Homo sapiens, TE-8, 72 h
[33] = system: HCOX1290; format: in vivo; details: HCOX1290, Colorectal, Rb present; 250 mg/kg qd
[34] = system: NCI-H3255; test: cells; format: cell-based; details: Homo sapiens, NCI-H3255, 72 h
[35] = system: HBRX1004; format: in vivo; details: HBRX1004, Breast, TNBC, Rb present; 250 mg/kg qd
[36] = system: SNU-761; test: cells; format: cell-based; details: SNU-761, 72 h
[37] = system: SK-MEL-30; test: cells; format: cell-based; details: Homo sapiens, SK-MEL-30, 72 h; remark: listed apart in the source
[38] = system: MELJUSO; test: cells; format: cell-based; details: Homo sapiens, MEL-JUSO, 72 h
[39] = system: COR-L105; test: cells; format: cell-based; details: Homo sapiens, COR-L105, 72 h
[40] = system: HBCx-8; format: in vivo; details: HBCx-8, Breast, TNBC, Rb present; 125 mg/kg bid × 21
[41] = system: A549; test: cells; format: cell-based; details: Homo sapiens, A549, 72 h
[42] = system: HBCx-12; format: in vivo; details: HBCx-12, Breast, TNBC, Rb present; 125 mg/kg bid × 21

SMILES: CC(=O)c1c(C)c2cnc(Nc3ccc(N4CCNCC4)cn3)nc2n(C2CCCC2)c1=O [Palbociclib, reference compound]
- IC50 [1]: 72000 ± 33000 nM
- IC50 [2]: 30000 ± 18000 nM

SMILES: CN(C)C(=O)c1cc2cnc(Nc3ccc(N4CCNCC4)cn3)nc2n1C1CCCC1 [Ribociclib, 7-cyclopentyl-2-(5-piperazin-1-yl-pyridin-2-ylamino)-7H-pyrrolo[2,3-d]pyrimidine-6-carboxylic acid dimethylamide]
- activity against CDK1/cyclin B [3]: far less active
- inhibition at 0.08 µM [4]: 14%
- inhibition at 1.25 µM [4]: 42%
- inhibition at 5 µM [4]: 54%
- inhibition at 10 µM [4]: 61%
- inhibition at […] [4]: 20% and 28% and 37% and 49%
- IC50 [5]: 980 nM
- IC50 [6]: 870 nM
- IC50 [7]: 1600 nM
- IC50 [8]: 270 nM
- IC50 [9]: 270 nM
- IC50 [10]: 280 nM
- activity against CDK9/cyclin T1 [11]: far less active
- IC50 [12]: 9700 nM
- IC50 [13]: 630 nM
- IC50 [14]: > 10000 nM
- maximum tolerated dosage [15]: 250 mg/kg
- IC50 [16]: > 10000 nM
- IC50 [17]: > 10000 nM
- T/C ([18]; 150 mg/kg qd): 36
- T/C ([18]; 250 mg/kg qd): 19
- IC50 [19]: > 10000 nM
- T/C [20]: 82
- IC50 [21]: > 10000 nM
- IC50 [22]: > 10000 nM
- T/C [23]: 92
- IC50 [24]: 6120 nM
- IC50 [25]: > 10000 nM
- IC50 [26]: 300 nM
- T/C [27]: 102
- IC50 [28]: > 10000 nM
- IC50 [29]: 2000 nM
- IC50 [30]: 1010 nM
- IC50 [31]: > 10000 nM
- IC50 [32]: > 10000 nM
- T/C [33]: 22
- IC50 [34]: > 10000 nM
- T/C [35]: 10
- IC50 [36]: 670 nM
- IC50 [37]: 1000 nM
- IC50 [38]: > 10000 nM
- IC50 [39]: 1920 nM
- T/C [40]: 10
- IC50 [41]: 1200 nM
- T/C [42]: 33
